From US20230085307A1, “PYRIDAZINONE COMPOUND AND HERBICIDE” (NISSAN CHEMICAL CORPORATION, priority 2019, published 2023)

Key:
late watergrass = test: Test Example 1: herbicidal activity, application before weed generation under submerged conditions (Table 16, symbol A); format: in vivo, late watergrass (Echinochloa oryzicola); conditions: 320 g/ha applied herbicide
How it was run: (§1)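 Emulsion formulation, water-diluted to set dose, was put onto the flooded surface (4 cm depth, alluvial soil) the same day weeds were sown and 2.5-leaf rice transplanted. After 3 weeks at 25-30 °C under glass, each species was rated 0 (≤5% kill) to 5 (≥90% kill).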

Japanese bulrush = test: Test Example 1: herbicidal activity, application before weed generation under submerged conditions (Table 16, symbol B); format: in vivo, Japanese bulrush (Schoenoplectus juncoides); conditions: 320 g/ha applied herbicide
How it was run: as §1

oval-leafed pondweed = test: Test Example 1: herbicidal activity, application before weed generation under submerged conditions (Table 16, symbol C); format: in vivo, oval-leafed pondweed (Monochoria vaginalis); conditions: 320 g/ha applied herbicide
How it was run: as §1

barnyard grass [1] = test: Test Example 3: herbicidal effect by foliage application, Wagner pot (Table 18, symbol H); format: in vivo, barnyard grass (Echinochloa crus-galli); conditions: amount of applied herbicide 320 g/ha
How it was run: (§2)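 Plants were sown in alluvial soil held under 0.1–0.5 cm standing water and grown 14 days in a greenhouse at 25–30 °C. An emulsifiable formulation, water-diluted to the set dose, was then sprayed onto the foliage, and effects were scored three weeks later using previously defined criteria.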

Chinese sprangletop = test: Test Example 3: herbicidal effect by foliage application, Wagner pot (Table 18, symbol D); format: in vivo, chinese sprangletop (Leptochloa chinensis); conditions: amount of applied herbicide 320 g/ha
How it was run: as §2

rice flat sedge = test: Test Example 3: herbicidal effect by foliage application, Wagner pot (Table 18, symbol E); format: in vivo, rice flat sedge (Cyperus iria); conditions: amount of applied herbicide 320 g/ha
How it was run: as §2

southern crabgrass [2] = test: Test Example 4: herbicidal effect by soil treatment (Table 19, symbol F); format: in vivo, southern crabgrass (Digitaria ciliaris); conditions: amount of applied herbicide 320 g/ha
How it was run: (§3)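 Herbicidal effect was rated 3 weeks after treatment, using the scoring criteria of an earlier test. The compound, formulated as an emulsion and diluted in water to a set herbicide amount, had been sprayed uniformly on soil over freshly sown seeds. Growth took place in a greenhouse at 25° C. to 30° C.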

green foxtail [3] = test: Test Example 4: herbicidal effect by soil treatment (Table 19, symbol G); format: in vivo, green foxtail (Setaria viridis); conditions: amount of applied herbicide 320 g/ha
How it was run: as §3

barnyard grass [4] = test: Test Example 4: herbicidal effect by soil treatment (Table 19, symbol H); format: in vivo, barnyard grass (Echinochloa crus-galli); conditions: amount of applied herbicide 320 g/ha
How it was run: as §3

wild oat [5] = test: Test Example 4: herbicidal effect by soil treatment (Table 19, symbol I); format: in vivo, wild oat (Avena fatua); conditions: amount of applied herbicide 320 g/ha
How it was run: as §3

blackgrass [6] = test: Test Example 4: herbicidal effect by soil treatment (Table 19, symbol J); format: in vivo, blackgrass (Alopecurus myosuroides); conditions: amount of applied herbicide 320 g/ha
How it was run: as §3

Italian ryegrass [7] = test: Test Example 4: herbicidal effect by soil treatment (Table 19, symbol K); format: in vivo, Italian ryegrass (Lolium multiflorum); conditions: amount of applied herbicide 320 g/ha
How it was run: as §3

windgrass [8] = test: Test Example 4: herbicidal effect by soil treatment (Table 19, symbol L); format: in vivo, windgrass (Apera spica-venti); conditions: amount of applied herbicide 320 g/ha
How it was run: as §3

velvetleaf [9] = test: Test Example 4: herbicidal effect by soil treatment (Table 19, symbol M); format: in vivo, velvetleaf (Abutilon theophrasti); conditions: amount of applied herbicide 320 g/ha
How it was run: as §3

redroot pigweed [10] = test: Test Example 4: herbicidal effect by soil treatment (Table 19, symbol N); format: in vivo, redroot pigweed (Amaranthus retroflexus); conditions: amount of applied herbicide 320 g/ha
How it was run: as §3

lambsquarters [11] = test: Test Example 4: herbicidal effect by soil treatment (Table 19, symbol O); format: in vivo, lambsquarters (Chenopodium album); conditions: amount of applied herbicide 320 g/ha
How it was run: as §3

chickweed [12] = test: Test Example 4: herbicidal effect by soil treatment (Table 19, symbol P); format: in vivo, common chickweed (Stellaria media); conditions: amount of applied herbicide 320 g/ha
How it was run: as §3

false cleavers [13] = test: Test Example 4: herbicidal effect by soil treatment (Table 19, symbol Q); format: in vivo, false cleavers (Galium spurium); conditions: amount of applied herbicide 320 g/ha
How it was run: as §3

persian speedwell [14] = test: Test Example 4: herbicidal effect by soil treatment (Table 19, symbol R); format: in vivo, Persian speedwell (Veronica persica); conditions: amount of applied herbicide 320 g/ha
How it was run: as §3

southern crabgrass [15] = test: Test Example 5: herbicidal effect by foliage application, plastic box (Table 20, symbol F); format: in vivo, southern crabgrass (Digitaria ciliaris); conditions: foliage application, 320 g/ha, evaluated three weeks after application
How it was run: (§4)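 Foliar spray test: emulsion formulation diluted in water to a set application rate, sprayed onto 14-day-old plants raised in diluvial soil at 25° C to 30° C under glass. Both herbicidal effect and crop effect rated visually three weeks later.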

green foxtail [16] = test: Test Example 5: herbicidal effect by foliage application, plastic box (Table 20, symbol G); format: in vivo, green foxtail (Setaria viridis); conditions: foliage application, 320 g/ha, evaluated three weeks after application
How it was run: as §4

barnyard grass [17] = test: Test Example 5: herbicidal effect by foliage application, plastic box (Table 20, symbol H); format: in vivo, barnyard grass (Echinochloa crus-galli); conditions: foliage application, 320 g/ha, evaluated three weeks after application
How it was run: as §4

wild oat [18] = test: Test Example 5: herbicidal effect by foliage application, plastic box (Table 20, symbol I); format: in vivo, wild oat (Avena fatua); conditions: foliage application, 320 g/ha, evaluated three weeks after application
How it was run: as §4

blackgrass [19] = test: Test Example 5: herbicidal effect by foliage application, plastic box (Table 20, symbol J); format: in vivo, blackgrass (Alopecurus myosuroides); conditions: foliage application, 320 g/ha, evaluated three weeks after application
How it was run: as §4

Italian ryegrass [20] = test: Test Example 5: herbicidal effect by foliage application, plastic box (Table 20, symbol K); format: in vivo, Italian ryegrass (Lolium multiflorum); conditions: foliage application, 320 g/ha, evaluated three weeks after application
How it was run: as §4

windgrass [21] = test: Test Example 5: herbicidal effect by foliage application, plastic box (Table 20, symbol L); format: in vivo, windgrass (Apera spica-venti); conditions: foliage application, 320 g/ha, evaluated three weeks after application
How it was run: as §4

velvetleaf [22] = test: Test Example 5: herbicidal effect by foliage application, plastic box (Table 20, symbol M); format: in vivo, velvetleaf (Abutilon theophrasti); conditions: foliage application, 320 g/ha, evaluated three weeks after application
How it was run: as §4

redroot pigweed [23] = test: Test Example 5: herbicidal effect by foliage application, plastic box (Table 20, symbol N); format: in vivo, redroot pigweed (Amaranthus retroflexus); conditions: foliage application, 320 g/ha, evaluated three weeks after application
How it was run: as §4

lambsquarters [24] = test: Test Example 5: herbicidal effect by foliage application, plastic box (Table 20, symbol O); format: in vivo, lambsquarters (Chenopodium album); conditions: foliage application, 320 g/ha, evaluated three weeks after application
How it was run: as §4

chickweed [25] = test: Test Example 5: herbicidal effect by foliage application, plastic box (Table 20, symbol P); format: in vivo, common chickweed (Stellaria media); conditions: foliage application, 320 g/ha, evaluated three weeks after application
How it was run: as §4

false cleavers [26] = test: Test Example 5: herbicidal effect by foliage application, plastic box (Table 20, symbol Q); format: in vivo, false cleavers (Galium spurium); conditions: foliage application, 320 g/ha, evaluated three weeks after application
How it was run: as §4

persian speedwell [27] = test: Test Example 5: herbicidal effect by foliage application, plastic box (Table 20, symbol R); format: in vivo, Persian speedwell (Veronica persica); conditions: foliage application, 320 g/ha, evaluated three weeks after application
How it was run: as §4

COc1ccc2sc(-c3ccccc3)c(-c3c(O)c(C)nn(C)c3=O)c2c1 [2-164]
Herbicidal effect on A: late watergrass (grade 0-5) (late watergrass): 3 (Herbicidal rate of 40% or more and less than 70%)
Herbicidal effect on B: Japanese bulrush (grade 0-5) (Japanese bulrush): 0 (Herbicidal rate of 5% or less (almost no effect))
Herbicidal effect on C: oval-leafed pondweed (grade 0-5) (oval-leafed pondweed): 0 (Herbicidal rate of 5% or less (almost no effect))
herbicidal effect on H: barnyard grass (barnyard grass [1]): 2 (Herbicidal rate of 20% or more and less than 40%)
herbicidal effect on D: Chinese sprangletop (Chinese sprangletop): 3 (Herbicidal rate of 40% or more and less than 70%)
herbicidal effect on E: rice flat sedge (rice flat sedge): 4 (Herbicidal rate of 70% or more and less than 90%)
F: southern crabgrass, herbicidal effect rating (southern crabgrass [2]): 4 (Herbicidal rate of 70% or more and less than 90%)
G: green foxtail, herbicidal effect rating (green foxtail [3]): 5 (Herbicidal rate of 90% or more (almost completely withered))
H: barnyard grass, herbicidal effect rating (barnyard grass [4]): 2 (Herbicidal rate of 20% or more and less than 40%)
I: wild oat, herbicidal effect rating (wild oat [5]): 1 (Herbicidal rate of 5% or more and less than 20%)
J: blackgrass, herbicidal effect rating (blackgrass [6]): 0 (Herbicidal rate of 5% or less (almost no effect))
K: Italian ryegrass, herbicidal effect rating (Italian ryegrass [7]): 2 (Herbicidal rate of 20% or more and less than 40%)
L: windgrass, herbicidal effect rating (windgrass [8]): 3 (Herbicidal rate of 40% or more and less than 70%)
M: velvetleaf, herbicidal effect rating (velvetleaf [9]): 0 (Herbicidal rate of 5% or less (almost no effect))
N: redroot pigweed, herbicidal effect rating (redroot pigweed [10]): 4 (Herbicidal rate of 70% or more and less than 90%)
O: lambsquarters, herbicidal effect rating (lambsquarters [11]): 4 (Herbicidal rate of 70% or more and less than 90%)
P: chickweed, herbicidal effect rating (chickweed [12]): 5 (Herbicidal rate of 90% or more (almost completely withered))
Q: false cleavers, herbicidal effect rating (false cleavers [13]): 2 (Herbicidal rate of 20% or more and less than 40%)
R: persian speedwell, herbicidal effect rating (persian speedwell [14]): 4 (Herbicidal rate of 70% or more and less than 90%)
herbicidal effect on F: southern crabgrass (criteria 0-5) (southern crabgrass [15]): 4 (Herbicidal rate of 70% or more and less than 90%)
herbicidal effect on G: green foxtail (criteria 0-5) (green foxtail [16]): 5 (Herbicidal rate of 90% or more (almost completely withered))
herbicidal effect on H: barnyard grass (criteria 0-5) (barnyard grass [17]): 1 (Herbicidal rate of 5% or more and less than 20%)
herbicidal effect on I: wild oat (criteria 0-5) (wild oat [18]): 4 (Herbicidal rate of 70% or more and less than 90%)
herbicidal effect on J: blackgrass (criteria 0-5) (blackgrass [19]): 3 (Herbicidal rate of 40% or more and less than 70%)
herbicidal effect on K: Italian ryegrass (criteria 0-5) (Italian ryegrass [20]): 4 (Herbicidal rate of 70% or more and less than 90%)
herbicidal effect on L: windgrass (criteria 0-5) (windgrass [21]): 5 (Herbicidal rate of 90% or more (almost completely withered))
herbicidal effect on M: velvetleaf (criteria 0-5) (velvetleaf [22]): 3 (Herbicidal rate of 40% or more and less than 70%)
herbicidal effect on N: redroot pigweed (criteria 0-5) (redroot pigweed [23]): 5 (Herbicidal rate of 90% or more (almost completely withered))
herbicidal effect on O: lambsquarters (criteria 0-5) (lambsquarters [24]): 3 (Herbicidal rate of 40% or more and less than 70%)
herbicidal effect on P: chickweed (criteria 0-5) (chickweed [25]): 5 (Herbicidal rate of 90% or more (almost completely withered))
herbicidal effect on Q: false cleavers (criteria 0-5) (false cleavers [26]): 5 (Herbicidal rate of 90% or more (almost completely withered))
herbicidal effect on R: persian speedwell (criteria 0-5) (persian speedwell [27]): 5 (Herbicidal rate of 90% or more (almost completely withered))
